# Assay results: patent US20240025912A1 (Merck Sharp & Dohme LLC, priority 2022, published 2024)
# Molecular target: GST-RIPK1 (recombinant GST-RIPK1 kinase domain (residues 1-327)) (Homo sapiens (Human), UniProt Q13546)
# Experiment: RIPK1-ADP-Glo Enzymatic Assay
# Format: biochemical
# Details: 25 nM GST-RIPK1, 300 μM ATP, 3 μM dephosphorylated-MBP, 30 min pre-incubation, 150 min reaction
# Description: The enzymatic activity of RIPK1 is measured using an assay derived from ADP-Glo kit (TMPromega), which provides a luminescent-based ADP detection system. Specifically, the ADP generated by RIPK1 kinase is proportionally detected as luminescent signals in a homogenous fashion. In this context, the assessment of the inhibitory effect of small molecules (EC50) is measured by the effectiveness of the compounds to inhibit the ATP to ADP conversion by RIPK1.
# In this assay, the potency (EC50) of each compound was determined from a ten-point (1:3 serial dilution; top compound concentration of 100000 nM) titration curve using the following outlined procedure. To each well of a white ProxiPlus 384 well-plate, 30 nL of compound (1% DMSO in final assay volume of 3 μL) was dispensed, followed by the addition of 2 μL of 1× assay buffer (25 mM Hepes 7.3, 20 mM MgCl2, 50 mM NaCl, 1 mM DTT, 0.005% Tween20, and 0.02% BSA) containing 37.5 nM of GST-RIPK1 (recombinant GST-RIPK1 kinase domain (residues 1-327) enzyme produced from baculovirus-transfected Sf21 cells: MW 62 kDa). Plates were placed in an ambient temperature humidified chamber for a 30 min pre-incubation with compound. Subsequently, each reaction was initiated by the addition of 1 μL 1× assay buffer containing 900 μM ATP and 3 μM dephosphorylated-MBP substrate. The final reaction in each well of 3 μL consists of 25 nM of GST-RIPK1, 300 μM ATP, and 3 μM dephosphorylated-MBP. Kinase reactions were allowed to proceed for 150 min prior to adding ADP-Glo reagents per Promega's outlined kit protocol. Dose-response curves were generated by plotting percent effect (% product conversion; Y-axis) vs. Log 10 compound concentrations (X-axis). EC50 values were calculated using a non-linear regression, four-parameters sigmoidal dose-response model.
# GST-RIPK1 (recombinant GST-RIPK1 kinase domain (residues 1-327)), sequence (Q13546 1-327): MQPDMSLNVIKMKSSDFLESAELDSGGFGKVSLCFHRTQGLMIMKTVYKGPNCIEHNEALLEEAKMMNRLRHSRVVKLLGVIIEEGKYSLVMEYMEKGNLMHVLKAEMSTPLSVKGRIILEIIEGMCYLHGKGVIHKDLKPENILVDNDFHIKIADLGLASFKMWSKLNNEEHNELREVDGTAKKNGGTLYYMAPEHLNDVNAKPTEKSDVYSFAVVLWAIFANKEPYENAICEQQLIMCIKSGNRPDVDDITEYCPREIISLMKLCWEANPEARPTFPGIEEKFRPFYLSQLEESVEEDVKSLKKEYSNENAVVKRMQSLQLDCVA
row,EC50 [nM],SMILES
1,61.9,"COC(=O)C12CC(n3nc4n(c3=O)[C@H](c3cc(F)cc(F)c3)CC4)(C1)C2(F)F [Compound 1-36, methyl 3-[(5S)-5-(3,5-difluorophenyl)-3-oxo-6,7-dihydro-3H-pyrrolo[2,1-c][1,2,4]triazol-2(5H)-yl]-2,2-difluorobicyclo[1.1.1]pentane-1-carboxylate]"
2,65.6,"O=c1n(C23CC(F)(C2)C3)nc2n1[C@H](c1ccc(F)cc1)CC2 [Compound 1-37, (5S)-2-(3-fluorobicyclo[1.1.1]pentan-1-yl)-5-(4-fluorophenyl)-2,5,6,7-tetrahydro-3H-pyrrolo[2,1-c][1,2,4]triazol-3-one]"
3,160,"N#CC12CC(n3nc4n(c3=O)[C@H](c3ccc(F)cc3)CC4)(C1)C2 [Compound 1-38, 3-[(5S)-5-(4-fluorophenyl)-3-oxo-6,7-dihydro-3H-pyrrolo[2,1-c][1,2,4]triazol-2(5H)-yl]bicyclo[1.1.1]pentane-1-carbonitrile]"
4,47,"N#CC12CCC(n3nc4n(c3=O)[C@H](c3ccccc3)CC4)(C1)C2 [Compound 1-39, 4-[(5S)-3-oxo-5-phenyl-6,7-dihydro-3H-pyrrolo[2,1-c][1,2,4]triazol-2(5H)-yl]bicyclo[2.1.1]hexane-1-carbonitrile]"
5,34,"O=c1n(C23CC(F)(C2)C3)nc2n1[C@H](c1c(F)cccc1F)CC2 [Compound 1-40, (S)-5-(2,6-difluorophenyl)-2-(3-fluorobicyclo[1.1.1]pentan-1-yl)-2,5,6,7-tetrahydro-3H-pyrrolo[2,1-c][1,2,4]triazol-3-one]"
6,32.9,"O=c1n(C23CC(Cl)(C2)C3)nc2n1[C@H](c1ccccc1)CC2 [Compound 1-41, (5S)-2-(3-chlorobicyclo[1.1.1]pentan-1-yl)-5-phenyl-2,5,6,7-tetrahydro-3H-pyrrolo[2,1-c][1,2,4]triazol-3-one]"
7,18.5,"O=c1n(C23CC(Cl)(C2)C3)nc2n1[C@H](c1cccc(F)c1)CC2 [Compound 1-42, (S)-2-(3-chlorobicyclo[1.1.1]pentan-1-yl)-5-(3-fluorophenyl)-2,5,6,7-tetrahydro-3H-pyrrolo[2,1-c][1,2,4]triazol-3-one]"
8,57.7,"N#CC12CC(n3nc4n(c3=O)[C@H](c3c(F)cccc3F)CC4)(C1)C2 [Compound 1-43, (S)-3-(5-(2,6-difluorophenyl)-3-oxo-6,7-dihydro-3H-pyrrolo[2,1-c][1,2,4]triazol-2(5H)-yl)bicyclo[1.1.1]pentane-1-carbonitrile]"
9,67.7,"N#CC12CC(n3nc4n(c3=O)[C@H](c3ccc(F)c(F)c3)CC4)(C1)C2 [Compound 1-44, (S)-3-(5-(3,4-difluorophenyl)-3-oxo-6,7-dihydro-3H-pyrrolo[2,1-c][1,2,4]triazol-2(5H)-yl)bicyclo[1.1.1]pentane-1-carbonitrile]"
10,37.7,"O=c1n(C23CC(F)(C2)C3)nc2n1[C@H](c1ccc(Cl)cc1)CC2 [Compound 1-45, (S)-5-(4-chlorophenyl)-2-(3-fluorobicyclo[1.1.1]pentan-1-yl)-2,5,6,7-tetrahydro-3H-pyrrolo[2,1-c][1,2,4]triazol-3-one]"
11,44,"N#CC12CC(n3nc4n(c3=O)[C@H](c3ccc(Cl)cc3)CC4)(C1)C2 [Compound 1-46, (S)-3-(5-(4-chlorophenyl)-3-oxo-6,7-dihydro-3H-pyrrolo[2,1-c][1,2,4]triazol-2(5H)-yl)bicyclo[1.1.1]pentane-1-carbonitrile]"
12,86.4,"N#CC12CC(n3nc4n(c3=O)[C@H](c3ccc(F)cc3F)CC4)(C1)C2 [Compound 1-47, (S)-3-(5-(2,4-difluorophenyl)-3-oxo-6,7-dihydro-3H-pyrrolo[2,1-c][1,2,4]triazol-2(5H)-yl)bicyclo[1.1.1]pentane-1-carbonitrile]"
13,54.4,"O=c1n(C23CC(F)(C2)C3)nc2n1[C@H](c1ccc(F)cc1F)CC2 [Compound 1-48, (S)-5-(2,4-difluorophenyl)-2-(3-fluorobicyclo[1.1.1]pentan-1-yl)-2,5,6,7-tetrahydro-3H-pyrrolo[2,1-c][1,2,4]triazol-3-one]"
